Experimental data: patent US20230256007A1 (priority 2022, published 2023)

How the values were obtained:
[1] = tested on: patient with sequelae of influenza virus type A infection; settings: Case 3
[2] = tested on: patient with sequelae of infection with the delta variant of coronavirus; settings: Case 1
From the text: Although the patient was cured after home care, their activity level was lower than that of a healthy person. Fatigue, pain, and decrease in thinking power progressed extremely, and the level of daily life decreased below the level of a healthy person, so they underwent a medical examination at the hospital. The diagnosis based on the physician’s diagnostic criteria was as follows. • (i) Fatigue - persistent, fatigue so pronounced that the activity level is severely impaired: severity 3 (severe) • (ii) Feeling of fatigue after exertion - loss of physical and mental endurance, fatigue aggravated by physical exertion: severity 3 (severe) • (iii) Long recovery time from exertion - it takes 24 hours or more to recover to pre-exertion activity level: severity 2 (moderate) • (iv) Pain - muscle pain, joint pain, headache: severity 2 (moderate) • (v) Sleeping disorder - nonrestorative sleep, insomnia, hypersomnia: severity 2 (moderate) • (vi) Confusion and loss of concentration: severity 2 (moderate) • (vii) Memory impairment - short-term memory is impaired: severity 1 (mild) • (viii) Shortness of breath associated with exertion: severity 2 (moderate) • (ix) Gastrointestinal disorder - diarrhea, irritable bowel syndrome: severity 1 (mild) • (x) Repeated sore throat: severity 1 (mild) • (xi) Dizziness when standing up or fragility: severity 1 (mild) • (xii) Heat/cold intolerance: severity 1 (mild) • (xiii) Body temperature changes, irregular body temperature, cold hands and feet: severity 1 (mild)

[3] = around 3 weeks after inhalation
[4] = after 4 weeks of inhalation, before inhalation severity 2: moderate

[HH] [hydrogen gas, hydrogen]
Number of days without naps ([1]; after 8 weeks): increased
Amount of time for physical activity ([1]; after 8 weeks, although there was malaise): increased
Bowel movements and decreased motivation [1, 3]: improvement
Nap time [1, 3]: decreased
General feeling ([1]; around 3 weeks after inhalation, about 4% to 5% hydrogen, 5 hours per day): felt a little lighter
Effect on chronic fatigue, pain, and brain fog (summary) [2]: clearly effective
Feeling on inhalation (sympathetic nerves high before inhalation) ([2]; after 2 weeks of inhalation): felt relaxed and drowsy
Foggy head / brain fog ([2]; after 2 weeks of inhalation): their head appeared clear and refreshed
Frequency of headache and generalized pain ([2]; after 2 weeks of inhalation): seemed to decrease
Number of doses of analgesics ([2]; after 2 weeks of inhalation): decreased
Bedridden chronic severe fatigue (patient's impression) ([2]; after 4 weeks of inhalation): significantly alleviated
Cognitive ability (patient's impression) ([2]; after 4 weeks of inhalation): regained some of their writing and summarizing skills
Foggy feeling in the brain (patient's impression) ([2]; after 4 weeks of inhalation): alleviated
Number of doses of analgesics relative to that before hydrogen inhalation ([2]; after 4 weeks of inhalation): ¼
Other symptoms (not significantly recovered) ([2]; after 4 weeks of inhalation): did not worsen
Sleeping disorder ([2]; after 4 weeks of inhalation): same strong symptoms as before
Long recovery time from exertion: severity after inhalation (physician's diagnosis) [2, 4]: severity 1: mild
Loss of concentration: severity after inhalation (physician's diagnosis) [2, 4]: severity 1: mild
Pain, headache: severity after inhalation (physician's diagnosis) [2, 4]: severity 1: mild
Repeated sore throat: severity after inhalation (physician's diagnosis) [2, 4]: severity 1: mild
Fatigue - persistent, activity level severely impaired: severity after inhalation (physician's diagnosis) ([2]; after 4 weeks of inhalation, before inhalation severity 3: severe): severity 1: mild, or severity 2: moderate
Days on which they feel better like a healthy person ([2]; after 4 weeks of inhalation, still falls asleep 2 or 3 days a week): more than half the days of the week
Pain due to training, the next day ([2]; inhalation for about 90 minutes every day): almost eliminated the pain the next day
Falling asleep 1 to 2 hours after exertion (sudden intense fatigue) ([2]; inhaling hydrogen for about 90 minutes): can avoid falling asleep
Frequency of headache (patient's impression) ([2]; since the start of inhalation, once or twice a week before): decreased significantly, and headache has almost disappeared
Muscle pain and joint pain after training ([2]; two weeks after starting inhalation): began to be greatly alleviated
